{
  "source": "patent US12630520B2",
  "about": "“Left-handed bicyclic morpholine and salt thereof, preparation method therefor, pharmaceutical composition, and use” (Institute of Materia Medica, Chinese Academy of Medical …, priority 2019, dated 2026)",
  "assay": "Pharmacokinetics in male SD rats after intragastric administration",
  "format": "in vivo, rat",
  "conditions": "50 mg/kg intragastric, plasma",
  "protocol": "Male SD rats were intragastrically administrated with the single enantiomer and racemate of IMM-H014, to compare their pharmacokinetic characteristics in rat bodies.\n36 male SD rats were randomly divided into 6 groups, 6 animals in each group, including: (+)IMM-H014 intragastric administration group, (−)IMM-H014 intragastric administration group, and (±)IMM-H014 intragastric administration group. The administration dosage was 50 mg/kg. The rats were in fasting for 12 hours before the administrations and they could freely drink water.\n100 mg of the IMM-H014 raw material drug was weighed and dissolved in 20 ml of purified water to prepare a 5 mg/ml administration solution, which was administrated (1 ml/100 g) in a single dose according to body weights.\nAt 0 hour before administrations, and at 5 min, 10 min, 30 min, 1 h, 2 h, 3 h, 5 h, 8 h, 12 h and 24 h after administrations, 250 μL of blood was taken from fundus plexus venosus, placed in an EP tube containing 10 μL of heparin sodium, and centrifuged at 4000 rpm for 10 min, and then the blood plasma was taken and stored in a refrigerator at −80° C.\n50 μL of a plasma sample was precisely pipetted, and after 10 μL of an internal standard working solution was added thereto, they were placed in a 1.5 ml EP. They were whirled for 30 s and added with 500 μl of ethyl acetate. Then, they were whirled and vibrated for 5 min, and after being kept still for 10 min at 4° C., they were centrifuged for 5 min at 13000 r. The supernatant was taken and dried by blowing N2 at 30° C. The residue was re-dissolved by adding 100 μL of the initial mobile phase and centrifuged for 5 min at 13000 r, and the supernatant was transferred into a sampling bottle for measurements.\n• Chromatographic column: Agilent ZORBAX SB-C18 (2.1×100 mm, 3.5 μm) • Mobile phase A: water (0.1% formic acid, 1 mM ammonium acetate); mobile • phase B: acetonitrile (0.1% formic acid) • Column temperature: at 35° C.; sampling amount: 3 μL • Elution: 0-2 min: 40%-53% of the B; 2-3 min: 53%-40% of the B 4.4 Mass Spectrometry Conditions\nIon source: ESI; detection mode: positive ions; temperature of drying gases: 300° C.; flow rate of drying gases: nitrogen gas, 11 L/min; atomizing gas: nitrogen, […]; capillary voltage: 4000 V; scanning mode: Multiple Reaction Measurement (MRM); ion pairs and related voltage parameters were shown below:\nThe original data obtained after samples were collected was treated by adopting MassHunter QQQ data processing software, to obtain blood-drug concentration data; then, the pharmacokinetic parameters were calculated through DAS software; finally, the t-test was performed by adopting SPSS software, to compare if there were statistical differences in drugs having the same optical activity but in different batches and in drugs having different optical activities, wherein the P<0.05 was considered to have significant differences. In the study, by intragastrically administrating 3 groups of SD rats with the single enantiomer and racemate of the IMM-H014 respectively, their pharmacokinetic characteristics in the rat bodies were studied.",
  "note": "Like-named read-outs stand apart in the source and are kept apart here.",
  "data": [
    {"smiles": "COC(=O)c1cc(OC)c2c(c1-c1c(CN3CCOCC3)cc(OC)c3c1OCO3)OCO2", "note": "(racemic) [(±)IMM-H014]", "values": [
      {"measurement": "AUC (0-t)", "value": "5.242 ± 3.447", "unit": "µg·h/mL"},
      {"measurement": "AUC (0-∞)", "value": "5.268 ± 3.432", "unit": "µg·h/mL"},
      {"measurement": "CLz/F", "value": "14.0 ± 9.3", "unit": "L/h/kg"},
      {"measurement": "Cmax", "value": "3324 ± 2307", "unit": "µg/L"},
      {"measurement": "Tmax", "value": "12.5 ± 9", "unit": "min"},
      {"measurement": "t1/2z", "value": "1.206 ± 0.27", "unit": "h"}
    ]},
    {"smiles": "COC(=O)c1cc(OC)c2c(c1-c1c(CN3CCOCC3)cc(OC)c3c1OCO3)OCO2", "note": "[(+)IMM-H014]", "values": [
      {"measurement": "AUC (0-t)", "value": "2.876 ± 1.978", "unit": "µg·h/mL"},
      {"measurement": "AUC (0-∞)", "value": "2.877 ± 1.977", "unit": "µg·h/mL"},
      {"measurement": "CLz/F", "value": "25.0 ± 15.7", "unit": "L/h/kg"},
      {"measurement": "t1/2z", "value": "0.984 ± 0.26", "unit": "h"},
      {"measurement": "Cmax", "setting": "male, SD, rat, po, 50 mg/kg, read-out: Cmax", "value": "2280 ± 2000", "unit": "µg/L"},
      {"measurement": "Tmax", "setting": "male, SD, rat, po, 50 mg/kg, read-out: Tmax", "value": "20 ± 11.4", "unit": "min"}
    ]},
    {"smiles": "COC(=O)c1cc(OC)c2c(c1-c1c(CN3CCOCC3)cc(OC)c3c1OCO3)OCO2", "note": "[(−)IMM-H014]", "values": [
      {"measurement": "AUC (0-t)", "value": "5.866 ± 2.979", "unit": "µg·h/mL"},
      {"measurement": "AUC (0-∞)", "value": "5.892 ± 3.005", "unit": "µg·h/mL"},
      {"measurement": "CLz/F", "value": "10.7 ± 6.2", "unit": "L/h/kg"},
      {"measurement": "Cmax", "value": "3280 ± 1579", "unit": "µg/L"},
      {"measurement": "Tmax", "value": "18 ± 10.8", "unit": "min"},
      {"measurement": "t1/2z", "value": "1.248 ± 0.33", "unit": "h"}
    ]}
  ]
}
